The structures appear in SMILES notation.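 Following 48 hours of exposure in 96-well plates, responses at five concentrations were used to interpolate endpoints linearly. TGI denotes the concentration required for complete inhibition of growth.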

Some test systems named below: CAKI-1 renal; 786-0 renal; M14 melanoma; MDA-MB-435; A549 NSCLC; SNB-75 CNS; HOP-62 NSCLC; MCF7 breast; MOLT-4 leukemia; MALME-3M melanoma.
Holding throughout (assay): inhibition of tumour cell growth, NCI panel, 48 h

In the case of `COC(=O)c1ccc(OCc2ccc3nc(-c4ccccc4)c(Cl)nc3c2)cc1`, the TGI is 69.9 µM in the assay with CAKI-1 renal; 48.9 µM with 786-0 renal; above 100 µM in the assay on M14 melanoma; above 100 µM in the assay on MDA-MB-435; above 100 µM in the assay on A549 NSCLC; 55.4 µM in the assay with SNB-75 CNS. In addition, the TGI with HOP-62 NSCLC, in the assay with MCF7 breast and with MOLT-4 leukemia was above 100 µM in each case.
Regarding `COC(=O)CNC(=O)/C=C/[C@H](O[Si](C)(C)C(C)(C)C)[C@H](/C=C/C(=O)NCC(=O)OC)O[Si](C)(C)C(C)(C)C`, the TGI in the assay on CAKI-1 renal, in the assay on MALME-3M melanoma, with 786-0 renal, in the assay with MDA-MB-435, in the assay on A549 NSCLC and in the assay on SNB-75 CNS was above 25 µM throughout. For the same molecule, the TGI in the assay with HOP-62 NSCLC, in the assay with MCF7 breast and in the assay on MOLT-4 leukemia was above 25 µM in each case.
For `COc1cccc(N2N=C3c4ccccc4-n4c(nc5ccccc54)C3C2N)c1` (stereo not drawn), the TGI in the assay with CAKI-1 renal, with MALME-3M melanoma, with 786-0 renal, with M14 melanoma, in the assay on MDA-MB-435 and in the assay with A549 NSCLC was above 100 µM in each case. In addition, the TGI in the assay on SNB-75 CNS, in the assay with HOP-62 NSCLC and in the assay on MCF7 breast was above 100 µM throughout.
Regarding `Cc1ccc(C2=Nn3c(nc4sc(-c5ccccc5)cc4c3=O)SC2)cc1`, the TGI in the assay with CAKI-1 renal, with MALME-3M melanoma, with 786-0 renal, in the assay on MDA-MB-435, in the assay with A549 NSCLC and with SNB-75 CNS was above 100 µM in each case. Moreover, the TGI in the assay with HOP-62 NSCLC, in the assay on MCF7 breast and in the assay with MOLT-4 leukemia was above 100 µM in each case.
`COc1ccc(-c2c(C(C)=O)c(C)n(C3OC(CO)C(O)C(O)C3O)c(=S)c2C#N)cc1` (stereo not drawn): the TGI in the assay on CAKI-1 renal, with MALME-3M melanoma, in the assay on M14 melanoma, in the assay on MDA-MB-435, in the assay on A549 NSCLC and in the assay on SNB-75 CNS was above 100 µM each time. Also, the TGI in the assay with HOP-62 NSCLC, in the assay with MCF7 breast and in the assay on MOLT-4 leukemia was above 100 µM each time.
Consider `CN1C(=O)[C@@]2(C=CC3(CC2)OCCO3)c2ccccc21`, for which the TGI was above 50 µM in the assay with CAKI-1 renal; above 50 µM in the assay with 786-0 renal; above 50 µM in the assay on M14 melanoma; above 50 µM in the assay with MDA-MB-435; above 50 µM in the assay on A549 NSCLC; 49.5 µM in the assay with SNB-75 CNS. The TGI with HOP-62 NSCLC, in the assay with MCF7 breast and with MOLT-4 leukemia was above 50 µM throughout.
With `CNC(=O)OCC1=C(COC(=O)NC)CN(c2ccccc2)C1`, the TGI in the assay with MALME-3M melanoma, in the assay on 786-0 renal, in the assay with M14 melanoma, with MDA-MB-435, with A549 NSCLC and in the assay with SNB-75 CNS was above 100 µM each time. The TGI in the assay with HOP-62 NSCLC, in the assay on MCF7 breast and in the assay on MOLT-4 leukemia was above 100 µM throughout.
On to `C=C1c2nc3ccccc3n2C=C(c2ccccc2)N1c1ccc(OC)cc1`, for which the TGI was 64 µM with CAKI-1 renal; 44.8 µM in the assay with MALME-3M melanoma; 56.8 µM in the assay with 786-0 renal; 52.6 µM in the assay on M14 melanoma; above 100 µM in the assay on MDA-MB-435; above 100 µM in the assay on A549 NSCLC. Further, the TGI in the assay with SNB-75 CNS is 21.2 µM; in the assay on MCF7 breast, 24.1 µM; with MOLT-4 leukemia it was above 100 µM.
Take `C=C(CCC(C(=O)O)C1CCC2(C)C3=C(CCC12C)C1(C)CCC(O)C(C)(C)C1CC3)C(C)C` (stereo not drawn): the TGI in the assay with CAKI-1 renal, in the assay on 786-0 renal, with M14 melanoma, in the assay with MDA-MB-435, with A549 NSCLC and in the assay with SNB-75 CNS was above 100 µM each time. In addition, the TGI in the assay with HOP-62 NSCLC, in the assay with MCF7 breast and in the assay on MOLT-4 leukemia was above 100 µM in each case.
For the molecule `COC(=O)CCc1ccc2c(c1)CC1(C2)Cc2ccc(CCC(=O)OC)cc2C1`, the TGI in the assay with MALME-3M melanoma, with 786-0 renal, in the assay with M14 melanoma, with MDA-MB-435, in the assay with A549 NSCLC and in the assay with SNB-75 CNS was above 100 µM throughout. In addition, the TGI in the assay with HOP-62 NSCLC, with MCF7 breast and in the assay with MOLT-4 leukemia was above 100 µM throughout.
`CC1=CC(c2ccccc2)n2c(nc3cc4ccccc4cc32)N1` (stereo not drawn): the TGI with CAKI-1 renal, in the assay with MALME-3M melanoma, in the assay with 786-0 renal, with M14 melanoma, in the assay with MDA-MB-435 and in the assay on A549 NSCLC was above 100 µM each time. Besides, the TGI in the assay on SNB-75 CNS, in the assay with MCF7 breast and with MOLT-4 leukemia was above 100 µM throughout.
`BrCC[P+](c1ccccc1)(c1ccccc1)c1ccccc1`: the TGI was 25.2 µM in the assay with CAKI-1 renal; 10.4 µM in the assay on 786-0 renal; 18 µM with M14 melanoma; 10.8 µM in the assay with MDA-MB-435; above 100 µM in the assay with A549 NSCLC; 9.86 µM in the assay with SNB-75 CNS. For the same molecule, the values for the TGI with HOP-62 NSCLC, in the assay on MCF7 breast and in the assay on MOLT-4 leukemia were 20.2 µM, 30.5 µM and 24.3 µM, respectively.

For the origin of these results see PubChem BioAssay (NCI).
